Test results: patent publication US12043600B2, “Microbiocidal compounds” (SYNGENTA CROP PROTECTION AG, priority 2018, dated 2024)

Assays:
[1] = test system: Alternaria solani; assay: Alternaria solani/Tomato/Leaf Disc (Early Blight); type: in vivo; details: foliar, tomato leaf disc, compared to untreated control
Outline: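 Protective leaf-disc test: compound sprayed onto tomato cv. Baby disks, spore inoculation following after 2 days. Disks kept at 80% rh, 12/12 h light/dark, 23° C. day and 21° C. night; activity read as percent disease control relative to untreated checks 5-7 days post-application.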

[2] = test system: Botryotinia fuckeliana (Botrytis cinerea); assay: Botryotinia fuckeliana (Botrytis cinerea)/Liquid Culture (Gray Mould); type: cell-based; details: liquid culture, compared to untreated control
Method: Conidia of the fungus from cryogenic storage are directly mixed into nutrient broth (Vogels broth). After placing a (DMSO) solution of test compound into a microtiter plate (96-well format), the nutrient broth containing the fungal spores is added.

[3] = test system: Glomerella lagenarium (Colletotrichum lagenarium); assay: Glomerella lagenarium (Colletotrichum lagenarium)/Liquid Culture (Anthracnose); type: cell-based; details: Colletotrichum orbiculare, liquid culture, compared to untreated control
[4] = test system: Blumeria graminis f. sp. tritici (Erysiphe graminis f. sp. tritici); assay: Blumeria graminis f. sp. tritici/Wheat/Leaf Disc Preventative (Powdery Mildew on Wheat); type: in vivo; details: foliar, wheat leaf disc preventative, compared to untreated control
Outline: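 Preventative leaf-disc test: percent disease control versus untreated leaf segments read 6-8 days post-application. Compound spray applied to wheat cv. Kanzler segments on agar one day before shaking infected plants over them; incubation at 20° C and 60% rh, 24 h darkness then 12 h light/12 h dark cycles.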

[5] = test system: Monographella nivalis (Microdochium nivale); assay: Monographella nivalis (Microdochium nivale)/Liquid Culture (Foot Rot Cereals); type: cell-based; details: liquid culture, compared to untreated control
Outline: (§1)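 Growth inhibition read in liquid culture: spores from frozen stocks, suspended in potato dextrose broth, meet DMSO-dissolved compound placed beforehand in the plate.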

[6] = test system: Mycosphaerella arachidis (Cercospora arachidicola); assay: Mycosphaerella arachidis (Cercospora arachidicola)/Liquid Culture (Early Leaf Spot); type: cell-based; details: liquid culture, compared to untreated control
Outline: as §1

[7] = test system: Phytophthora infestans; assay: whole plant or invertebrate; type: in vivo; details: in Solanum lycopersicum, foliar, read-out: control of Phytophthora infestans
[8] = test system: Plasmopara viticola; assay: whole plant or invertebrate; type: in vivo; details: foliar, read-out: control of Plasmopara viticola
[9] = test system: Puccinia recondita f. sp. tritici; assay: Puccinia recondita f. sp. tritici/Wheat/Leaf Disc Curative (Brown Rust); type: in vivo; details: foliar, wheat leaf disc curative, compared to untreated control
Outline: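 Formulated compound, diluted in water, is applied to inoculated wheat cv. Kanzler leaf segments on agar one day post-inoculation (pre-incubation dark, 19° C, 75% rh). After 6-8 days at 19° C, 75% rh and 12 h/12 h light, activity is rated as percent disease control relative to untreated segments.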

[10] = test system: Puccinia recondita f. sp. tritici; assay: Puccinia recondita f. sp. tritici/Wheat/Leaf Disc Preventative (Brown Rust); type: in vivo; details: foliar, 200 ppm, wheat leaf disc preventative, compared to untreated control, read-out: control of Puccinia recondita f. sp. tritici
[11] = test system: Magnaporthe grisea (Pyricularia oryzae); assay: whole plant or invertebrate; type: in vivo; details: foliar, read-out: control of Magnaporthe grisea
[12] = test system: Pyrenophora teres; assay: Pyrenophora teres/Barley/Leaf Disc Preventative (Net Blotch); type: in vivo; details: foliar, 200 ppm, barley leaf disc preventative, compared to untreated control, read-out: control of Pyrenophora teres
Outline: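 Preventative leaf-disc test: inoculation with fungal spores took place 2 days after spraying segments of barley cv. Hasso, placed on agar, with water-diluted formulated compound. Read-out is % disease control per compound.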

[13] = test system: Thanatephorus cucumeris (Rhizoctonia solani); assay: Thanatephorus cucumeris (Rhizoctonia solani)/Liquid Culture (Foot Rot, Damping-Off); type: cell-based; details: liquid culture, compared to untreated control
Method: Mycelia fragments of a newly grown liquid culture of the fungus are directly mixed into nutrient broth (PDB potato dextrose broth). After placing a (DMSO) solution of the test compounds into a microtiter plate (96-well format), the nutrient broth containing the fungal material is added.

[14] = test system: Mycosphaerella graminicola (Septoria tritici); assay: Mycosphaerella graminicola (Septoria tritici)/Liquid Culture (Septoria Blotch); type: cell-based; details: Zymoseptoria tritici; 20 ppm; liquid culture; compared to untreated control
Outline: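 Results given as % disease control: test compound in DMSO was placed in wells first, then potato dextrose broth carrying cryostored fungal conidia was added.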

[15] = Photostability assay (Atlas Suntest); type: physicochemical; details: Suntest 750 W/m^2, spotted on microscope slides
Method: The testing method to measure the photostability data of each compound in table is D1 is as specifically described below. The objective of the photostability assay was to determine the stability of the individual test compounds in a strictly controlled and reproducible environment allowing a comparison of their photostability.
Method: Compounds were dissolved in methanol (HPLC grade) to give 1 g/L stock solutions. Compound stock solution (2 μl) was spotted onto microscope slides in a 3D printed holder and put into the Atlas Suntest. The spectral output power of the Suntest was set to 750 W/m^2, which is considered typical of the daily maximum (noon) irradiance level on a very bright British Summer day. At specific time points slides were removed from the Suntest and placed in 4D vials. Wash solvent made up of 50:40:10 H2O:MeCN:THF (1 mL) is then added to the vials and whirlimixed. The resulting solution is then subsampled to an HPLC vial to be analysed. A Waters UPLC system with Photodiode Array was used with a Waters reverse phase column (BEH C18, 100×2.1 mm×1.7 μm) and acetonitrile (HPLC grade) acidified water (0.2% formic acid) mobile phase at a flow rate of 0.6 mL/min. Peak detection was at the optimum wavelength and peak areas were used for quantification
Initial and subsequent measurements of peak area attributable to the test compound were used to provide a % parent remaining at 3 hours.

[16] = test system: Phaeosphaeria nodorum (Septoria nodorum); assay: Phaeosphaeria nodorum (Septoria nodorum)/Wheat/Leaf Disc Preventative (Glume Blotch); type: in vivo; details: Parastagonospora nodorum, foliar, wheat leaf disc preventative, compared to untreated control
Outline: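 Preventative test: compound spray first, then spore inoculation after 2 days on cv. Kanzler wheat leaf segments. Incubation in a climate cabinet at 20 °C and 75% rh under a 12 h light/12 h dark cycle. Activity rated as % control relative to untreated discs at 5–7 days post-application.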

[17] = test system: Phakopsora pachyrhizi; assay: Phakopsora pachyrhizi/Soybean/Preventative (Soybean Rust); type: in vivo; details: 288 h, Phakopsora pachyrhizi (Soybean rust); for pest or weed control at 200 ppm: read-out: control (%)

Compound: CO/C=C(\Oc1cc(-n2ccc(C3=CCCCC3)n2)ccc1C)C(=O)OC [Compound E-39, methyl (Z)-2-[5-[3-(cyclohexen-1-yl)pyrazol-1-yl]-2-methyl-phenoxy]-3-methoxy-prop-2-enoate]
- pest or weed control at 200 ppm [1]: ≥ 80%
- inhibition of growth at 20 ppm [2]: ≥ 80%
- inhibition of growth at 20 ppm [3]: ≥ 80%
- pest or weed control at 200 ppm [4]: ≥ 80%
- inhibition of growth at 20 ppm [5]: ≥ 80%
- inhibition of growth at 20 ppm [6]: ≥ 80%
- pest or weed control at 200 ppm [7]: ≥ 80%
- pest or weed control at 200 ppm [8]: ≥ 80%
- pest or weed control at 200 ppm [9]: ≥ 80%
- pest or weed control at 200 ppm [10]: ≥ 80%
- pest or weed control at 200 ppm [11]: ≥ 80%
- pest or weed control at 200 ppm [12]: ≥ 80%
- inhibition of growth at 20 ppm [13]: ≥ 80%
- inhibition of growth at 20 ppm [14]: ≥ 80%
- melting point: 108 to 110 °C

Compound: CO/C=C(\Oc1cc(-n2ccc(C(C)C)n2)c(F)cc1C)C(=O)OC [Compound E-41, methyl (Z)-2-[4-fluoro-5-(3-isopropylpyrazol-1-yl)-2-methyl-phenoxy]-3-methoxy-prop-2-enoate]
- inhibition of growth at 20 ppm [3]: ≥ 80%
- pest or weed control at 200 ppm [4]: ≥ 80%
- inhibition of growth at 20 ppm [5]: ≥ 80%
- inhibition of growth at 20 ppm [6]: ≥ 80%
- pest or weed control at 200 ppm [8]: ≥ 80%
- pest or weed control at 200 ppm [9]: ≥ 80%
- pest or weed control at 200 ppm [10]: ≥ 80%
- pest or weed control at 200 ppm [11]: ≥ 80%
- inhibition of growth at 20 ppm [13]: ≥ 80%
- inhibition of growth at 20 ppm [14]: ≥ 80%
- % Parent Remaining @ 3 hrs [15]: 28%

Compound: CO/C=C(\Oc1cc(-n2ccc(OC(C)C)n2)ccc1C)C(=O)OC [Compound E-70, methyl (Z)-2-[5-(3-isopropoxypyrazol-1-yl)-2-methyl-phenoxy]-3-methoxy-prop-2-enoate]
- pest or weed control at 200 ppm [1]: ≥ 80%
- inhibition of growth at 20 ppm [3]: ≥ 80%
- pest or weed control at 200 ppm [4]: ≥ 80%
- pest or weed control at 200 ppm [16]: ≥ 80%
- inhibition of growth at 20 ppm [5]: ≥ 80%
- inhibition of growth at 20 ppm [6]: ≥ 80%
- pest or weed control at 200 ppm [7]: ≥ 80%
- pest or weed control at 200 ppm [8]: ≥ 80%
- pest or weed control at 200 ppm [11]: ≥ 80%
- pest or weed control at 200 ppm [12]: ≥ 80%
- inhibition of growth at 20 ppm [14]: ≥ 80%
- % Parent Remaining @ 3 hrs [15]: 25%
- melting point: 94 to 97 °C

Compound: CO/C=C(\Oc1cc(-n2ccc(C3CCC3)n2)ccc1C)C(=O)OC [Compound E-88, methyl (Z)-2-[5-(3-cyclobutylpyrazol-1-yl)-2-methyl-phenoxy]-3-methoxy-prop-2-enoate]
- pest or weed control at 200 ppm [1]: ≥ 80%
- inhibition of growth at 20 ppm [2]: ≥ 80%
- inhibition of growth at 20 ppm [3]: ≥ 80%
- pest or weed control at 200 ppm [4]: ≥ 80%
- pest or weed control at 200 ppm [16]: ≥ 80%
- inhibition of growth at 20 ppm [5]: ≥ 80%
- inhibition of growth at 20 ppm [6]: ≥ 80%
- pest or weed control at 200 ppm [7]: ≥ 80%
- pest or weed control at 200 ppm [8]: ≥ 80%
- pest or weed control at 200 ppm [11]: ≥ 80%
- inhibition of growth at 20 ppm [14]: ≥ 80%
- % Parent Remaining @ 3 hrs [15]: 34%
- melting point: 91 to 94 °C

Compound: CO/C=C(\Oc1cc(-n2ccc(CC(C)C)n2)ccc1C)C(=O)OC [Compound E-90, methyl (Z)-2-[5-(3-isobutylpyrazol-1-yl)-2-methyl-phenoxy]-3-methoxy-prop-2-enoate]
- inhibition of growth at 20 ppm [2]: ≥ 80%
- inhibition of growth at 20 ppm [3]: ≥ 80%
- pest or weed control at 200 ppm [4]: ≥ 80%
- pest or weed control at 200 ppm [16]: ≥ 80%
- inhibition of growth at 20 ppm [5]: ≥ 80%
- inhibition of growth at 20 ppm [6]: ≥ 80%
- pest or weed control at 200 ppm [7]: ≥ 80%
- pest or weed control at 200 ppm [8]: ≥ 80%
- pest or weed control at 200 ppm [11]: ≥ 80%
- inhibition of growth at 20 ppm [14]: ≥ 80%
- % Parent Remaining @ 3 hrs [15]: 42%
- melting point: 76 to 80 °C

Compound: CO/C=C(\Oc1cc(-n2ccc(C(F)(F)F)n2)ccc1C)C(=O)OC [Compound E-105, methyl (Z)-3-methoxy-2-[2-methyl-5-[3-(trifluoromethyl)pyrazol-1-yl]phenoxy]prop-2-enoate]
- pest or weed control at 200 ppm [1]: ≥ 80%
- inhibition of growth at 20 ppm [2]: ≥ 80%
- inhibition of growth at 20 ppm [3]: ≥ 80%
- pest or weed control at 200 ppm [4]: ≥ 80%
- pest or weed control at 200 ppm [16]: ≥ 80%
- inhibition of growth at 20 ppm [5]: ≥ 80%
- inhibition of growth at 20 ppm [6]: ≥ 80%
- pest or weed control at 0.6 ppm [17]: 0%
- pest or weed control at 2 ppm [17]: 0%
- pest or weed control at 6 ppm [17]: 20%
- pest or weed control at 20 ppm [17]: 95%
- pest or weed control at 60 ppm [17]: 100%
- pest or weed control at 200 ppm [17]: 100%
- pest or weed control at 200 ppm [8]: ≥ 80%
- pest or weed control at 200 ppm [11]: ≥ 80%
- pest or weed control at 200 ppm [12]: ≥ 80%
- inhibition of growth at 20 ppm [14]: ≥ 80%
- % Parent Remaining @ 3 hrs [15]: 74%
- melting point: 154 to 156 °C

Compound: CO/C=C(\Oc1cccc(-n2cccc2)c1)C(=O)OC [Compound X-1, reference compound]
- pest or weed control at 0.6 ppm [17]: 0%
- pest or weed control at 2 ppm [17]: 0%
- pest or weed control at 6 ppm [17]: 0%
- pest or weed control at 20 ppm [17]: 10%
- pest or weed control at 60 ppm [17]: 10%
- pest or weed control at 200 ppm [17]: 45%
- % Parent Remaining @ 3 hrs [15]: 9%
